Source: paper PMC8292346, “Dysfunction of the key ferroptosis-surveilling systems hypersensitizes mice to tubular necrosis during acute kidney injury” (Nature Communications, 2021)
Several values for one entry are separate records, joined by “and”; a condition that tells them apart may be missing. Equal entries are not always repeated.

Legend:
HT29 cells = test: TSZ-induced necroptosis, 7-AAD/annexin V flow cytometry; format: cell-based, human; details: Nec-1f 10 µM
Protocol: (§1) To induce necroptosis in a human cell line, HT29 cells were stimulated at the indicated time points with 20 ng/ml human TNFα (Biolegend), 1 μM SMAC-mimetics (Birinapant, Chemietek), and 20 μM zVAD-fmk (Selleckchem, herein referred to as zVAD). For the induction of necroptosis in NIH3T3 cells, cells were incubated with 20 ng/ml TNF-α and 20 μM zVAD for indicated time points. […] Cells were seeded in six-well plates or petri dishes. […] After indicated time points, cells were collected and prepared for flow cytometry, immunoblotting, and/or LDH release assays.
(§2) Cells were harvested and the pellets were washed twice in PBS and stained with 5 μl of 7-AAD (BD Biosciences) and 5 μl of annexin-V-FITC (BD Biosciences) added to 100 μl annexin-V binding buffer (BD Biosciences). After 15 min, cells were recorded on the LSRII with the FACS Diva 6.1.1 software (BD Biosciences) and subsequently analyzed with the FlowJo v10 software (Tree Star).

MLKL = test: Western blot of pMLKL (S358) in TSZ-treated HT29 cells; format: cell-based, human; details: Nec-1s 10 µM, Fer-1 1 µM, Nec-1f 10 µM
Protocol: as §1
(§3) Cells were lysed in ice-cold 10 mM Tris-HCl, pH 7.5, 50 mM NaCl, 1% Triton X-100, 30 mM sodium pyrophosphate, 50 mM NaF, 100 μM Na3VO4, 2 μM ZnCl2, and 1 mM phenylmethylsulfonyl fluoride (PMSF, modified Frackelton buffer) for 30 min on ice. Insoluble material was removed by centrifugation (14 000×g, 30 min, 4 °C). Protein concentration was determined using a commercial Bradford assay kit according to the manufacturer’s instructions (Thermo Fisher). Equal amounts of protein (typically 30 μg per lane) were resolved on a 4%−15% gradient SDS/PAGE gel and transferred to a PVDF membrane (BIO-RAD). Primary antibody incubation was performed for anti-pS166-RIPK1 (Cell Signaling, Cat# 65746, 1:1000 dilution), anti-pS358-MLKL, (Abcam, ab187091, 1:1000 dilution), anti-MLKL (Genetex, GTX107538, 1:1000 dilution) and anti-β-Actin (Cell Signaling, Cat# 3700S, 1:1000 dilution). Secondary antibodies (anti-mouse, HRP-linked antibody, Cell Signaling, Cat# 7076S; anti-rabbit, HRP-linked antibody, Cell Signaling, Cat# 7074S) were applied at concentrations of 1:5.000 (also see Supplementary Table 1 for details). Proteins were then visualized by enhanced chemiluminescence (ECL; Amersham Biosciences).

RIPK1 = test: Western blot of pRIPK1 (S166) in TSZ-treated HT29 cells; format: cell-based, human; details: Nec-1s 10 µM, Fer-1 1 µM, Nec-1f 10 µM
Protocol: as §1, §3

HT1080 cells [1] = test: Ferroptosis inducers (FINs)/ferroptocide, 7-AAD/annexin V flow cytometry; format: cell-based, human; details: Nec-1s 30 µM, Nec-1f 30 µM; for double-negative events (7-AAD/annexin V): alone (DMSO) or with Fer-1 1 µM
NIH3T3 cells [2] = test: as above; format: cell-based, murine; details: alone (DMSO) or with Fer-1 1 µM, Nec-1s 30 µM, Nec-1f 30 µM
Protocol: as §1, §2

NIH3T3 cells [3] = test: Simultaneous ferroptosis and necroptosis (RSL3 plus TZ), 7-AAD/annexin V flow cytometry; format: cell-based, murine; details: NIH3T3, 16 h
Protocol: as §1, §2

HT1080 cells [4] = test: CellTiter-Glo luminescent cell viability assay (ATP), dose-response; format: cell-based, human
Protocol: Cells were plated in an opaque-walled 96-well plate and treatment with ferroptosis inducers and/or ferroptosis inhibitors was initiated 24 h later. […] Here, the reaction agent was directly added to the wells, mixed on an orbital shaker for 2 min, and then incubated at room temperature for 10 min. The luminescence was detected using a Promega GloMax® instrument.

[5] = tested on: Mouse cortical tubule cells (MCT); test: FINs/ferroptocide, 7-AAD/annexin V flow cytometry; format: cell-based; details: MCT, alone (DMSO) or with Fer-1 1 µM, Nec-1s 30 µM, Nec-1f 30 µM
Protocol: as §1, §2

CD10-135 cells = test: FINs/ferroptocide, LDH release assay; format: cell-based, human; design: LDH release: unit not given here; details: Nec-1f 30 µM
NIH3T3 cells [6] = test: Ferroptosis inducers (FINs)/ferroptocide, 7-AAD/annexin V flow cytometry; format: cell-based, murine; details: individual replicates
C57Bl/6 N mice = test: Bilateral kidney ischemia-reperfusion injury, severe model (38 min ischemia), survival; details: single dose 2 mg/kg body weight before reperfusion

## CN1C(=O)NC(Cc2c[nH]c3c(Cl)cccc23)C1=O (stereo not drawn) [Nec-1s, necrostatin-1s]
HT29 cells; HT29, TSZ (TNFα 20 ng/ml, birinapant 1 µM, zVAD-fmk 20 µM) 16 h
  7-AAD/annexin V flow cytometry, source data of bar graph Fig2e: 77% and 78.7% and 91.4% and 88.7%
HT29 cells; HT29, TSZ
  Protection against TSZ-induced necroptosis (7-AAD/annexin V, words): maintained double negativity
MLKL
  Phosphorylation of MLKL (pS358), western blot: comparable between Nec-1s and Nec-1f
RIPK1
  Phosphorylation of RIPK1 at S166, western blot: prevented phosphorylation at S166 in RIPK1
HT1080 cells [1]; HT1080, 1.13 µM RSL3 6 h
  double-negative events (7-AAD/annexin V): 45.5% and 30.5% and 56.9% and 58.4%
HT1080 cells [1]; HT1080, 10 µM FIN56 24 h
  double-negative events (7-AAD/annexin V): 88.1% and 85.1% and 82.1%
HT1080 cells [1]; HT1080, 10 µM ferroptocide 24 h
  double-negative events (7-AAD/annexin V): 42.7% and 26.5%
HT1080 cells [1]; HT1080, Fer-1 1 µM
  Inhibition of cell death induction by FINs/ferroptocide: but not by Nec-1s
NIH3T3 cells [2]; NIH3T3, 5 µM erastin 24 h
  double-negative events (7-AAD/annexin V): 10.2% and 2.01% and 4.47% and 2.99%
NIH3T3 cells [2]; NIH3T3, 10 µM FIN56 24 h
  double-negative events (7-AAD/annexin V): 88.9% and 92.9% and 90.2%
NIH3T3 cells [2]; NIH3T3, 10 µM FINO2 24 h
  double-negative events (7-AAD/annexin V): 6.67% and 1.36% and 2.97% and 1.72% and 7.65% and 9.33%
NIH3T3 cells [3]
  Rescue from necrosis induced by RSL3 plus TZ: fail to rescue
HT1080 cells [4]; HT1080 + Erastin, inhibitor concentration 0.01 (unit not given)
  ATP luminescence (CellTiterGlo): 6.2776%
HT1080 cells [4]; HT1080 + Erastin, inhibitor concentration 0.1 (unit not given)
  ATP luminescence (CellTiterGlo): 6.426%
HT1080 cells [4]; HT1080 + Erastin, inhibitor concentration 1 (unit not given)
  ATP luminescence (CellTiterGlo): 6.611%
HT1080 cells [4]; HT1080 + Erastin, inhibitor concentration 10 (unit not given)
  ATP luminescence (CellTiterGlo): 6.739%
HT1080 cells [4]; HT1080 + Erastin, inhibitor concentration 30 (unit not given)
  ATP luminescence (CellTiterGlo): 13.0792%
HT1080 cells [4]; HT1080 + Ferroptocide, inhibitor concentration 0.01 (unit not given)
  ATP luminescence (CellTiterGlo): 2.171% and 0.348%
HT1080 cells [4]; HT1080 + Ferroptocide, inhibitor concentration 0.1 (unit not given)
  ATP luminescence (CellTiterGlo): 7.287% and 1.309%
HT1080 cells [4]; HT1080 + RSL3, inhibitor concentration 0.01 (unit not given)
  ATP luminescence (CellTiterGlo): 48.9951% and 58.0398%
HT1080 cells [4]; HT1080 + RSL3, inhibitor concentration 0.1 (unit not given)
  ATP luminescence (CellTiterGlo): 48.7049% and 62.3771%
HT1080 cells [4]; HT1080 + RSL3, inhibitor concentration 1 (unit not given)
  ATP luminescence (CellTiterGlo): 60.6314% and 81.5005%
HT1080 cells [4]; HT1080 + RSL3, inhibitor concentration 10 (unit not given)
  ATP luminescence (CellTiterGlo): 61.8212% and 84.0786%
[5]; 5 µM erastin 24 h
  double-negative events (7-AAD/annexin V): 60.5% and 85.4% and 84.9% and 77.6%
[5]; 10 µM FIN56 24 h
  double-negative events (7-AAD/annexin V): 93.3% and 88% and 89.2%
CD10-135 cells; CD10-135, FIN56 alone (FIN) or with Fer-1, Nec-1s
  LDH release: 86.05 and 52.2984 and 63.7092
CD10-135 cells; CD10-135, FINO2 alone (FIN) or with Fer-1, Nec-1s
  LDH release: 71.57 and 72.5571 and 70.4933
CD10-135 cells; CD10-135, RSL3 alone (FIN) or with Fer-1, Nec-1s
  LDH release: 64.62 and 54.5823
CD10-135 cells; CD10-135, erastin alone (FIN) or with Fer-1, Nec-1s
  LDH release: 93.98 and 95.3511 and 88.9965
CD10-135 cells; CD10-135, ferroptocide alone (FIN) or with Fer-1, Nec-1s
  LDH release: 100 and 93.4978
NIH3T3 cells [6]; Erastin-induced ferroptosis
  cells in 7-AAD/annexin V flow cytometry (FigS9b): 17.0% and 14.0% and 10.0%
NIH3T3 cells [6]; FIN56-induced ferroptosis
  cells in 7-AAD/annexin V flow cytometry (FigS9b): 57.0% and 34.0%
NIH3T3 cells [6]; FINO2-induced ferroptosis
  cells in 7-AAD/annexin V flow cytometry (FigS9b): 63.0% and 21.0%
NIH3T3 cells [6]; Ferroptocide-induced cell death
  cells in 7-AAD/annexin V flow cytometry (FigS9b): 80.0% and 5.0%
NIH3T3 cells [6]; RSL3-induced ferroptosis
  cells in 7-AAD/annexin V flow cytometry (FigS9b): 71.0% and 41.0%
C57Bl/6 N mice
  Survival after severe renal IRI vs vehicle (Kaplan-Meier, words): not statistically significant
